Source: PubChem BioAssay AID2060500 (Molecular Pharmacology Branch, DTP, NCI, 2025)
pIC50: −log10 of the molar value. “And” between values parts separate entries of the source, which are not always exact repeats. Identical values can stand only once. Blank lines part the entries; values can stand above or below the molecule they belong to.

Test system: 596521-263-R-J1-PDC complex spheroids, viability % of control
Test: Anticancer human tumor 596521-263-R-J1-PDC patient-derived soft tissue sarcoma cell line growth inhibition [GQUAD]
Conditions: for viability, T/C: stronger effect = lower value
Description: DNA G-quadruplex Stabilizer Agents in Combinations in Complex Spheroids
A high-throughput screen of multi-cell type tumor spheroids was designed to identify active combinations of DNA G-quadruplex stabilizer agents and targeted small molecules. Complex spheroids include a stromal component modeled by human endothelial cells (HUVEC) and fibroblasts modeled by human mesenchymal stem cells (MSCs). The concentration ranges selected for each drug and investigational agent were based upon clinically achievable concentrations if the clinical Cmax of the agent was known.
Compounds. The drugs and investigational agents: pidnarulex (CX-5461; NSC782164), APTO-253 (NSC789042), BRACO-19 (NSC847499), peposertib (NSC802822), ceralasertib (NSC780249), elimusertib (NSC800525), camonsertib (NSC841442), AZD-1390 (NSC803789), olaparib (NSC753686), talazoparib (NSC767125), ART-558 (NSC835418), sotorasib (NSC818433), MRTX-1133 (NSC836407), SN-38 (NSC673596), topotecan (NSC609699), etoposide (NSC141540), doxorubicin (NSC123127), gemcitabine (NSC613327), 5-fluorouracil (NSC19893), paclitaxel (NSC125973), vemurafenib (NSC761431), panobinostat (NSC761190), R-306465 (JNJ-16241199; NSC773264), adavosertib (NSC754352), TP-3654 (NSC805149), carboplatin (NSC241240), KSQ-4279 (NSC840948), and staurosporine (NSC755774) were obtained from the National Cancer Institute (NCI) Developmental Therapeutics Program Chemical Repository (34). The FDA-approved anticancer drug set is available from the NCI Developmental Therapeutics Program. […] The stock solutions were prepared in dimethyl sulfoxide (DMSO, Sigma-Aldrich, St. Louis, MO, cat. D2650) at 800-fold the tested concentration and stored at -70 degrees C prior to their use. All drugs and investigational agents were tested over a range starting from a high concentration at or near the clinical Cmax and decreasing in half-log increments. If the clinical Cmax for an agent had not been determined, the highest concentration tested was 10 microM.
2.3 Cell Culture. All cells were maintained in an incubator at 37 degrees C and 5% CO2 with 95% humidity. The PDC lines were cultured according to standard operating procedures established by the NCI PDMR. All PDCs were thawed and cultured in Matrigel-coated flasks prepared with a working solution of 1X Ham's F-12 nutrient mix, without supplementation (Invitrogen, cat. 11765054), 100 U/mL penicillin-streptomycin (Invitrogen, cat. 15140122), and 2.5% Matrigel (Corning Inc., cat. 354248) for the first three passages. The 857933-349-R-J2-PDC line was cultured in 6C/Colon 1B media, which includes advanced DMEM/F-12 (Thermo Fisher Scientific, cat. 12634028), 10 mM HEPES (Thermo Fisher Scientific, cat. 15630080), 1X GlutaMAX supplement (Thermo Fisher Scientific, cat. 35050061), 0.1 mg/mL primocin (InvivoGen, cat. ant-pm-2), 10% defined fetal bovine serum, heat inactivated (HyClone Laboratories Inc., cat. SH30070.03HI), 50% L-WRN conditioned media (ATCC, cat. CRL-3276), 1.25 mM N-Acetyl-L-cysteine (Sigma-Aldrich, cat. A9165), 10 mM nicotinamide (Sigma-Aldrich, cat. N0636), 1X B-27 supplement (Thermo Fisher Scientific, cat. 17504044), 1X N-2 supplement (Thermo Fisher Scientific, cat. 17502048), 10 microM Y-27632 dihydrochloride (Tocris Bioscience, cat. 1254), and 50 ng/mL human EGF recombinant protein (Thermo Fisher Scientific, cat. PHG0311). The 485176-168-R4-J1-PDC line was cultured in Panc media, which includes all 6C/Colon 1B media components plus 100 ng/mL human FGF-10 (Thermo Fisher Scientific, cat. 100-26), 500 nM SB-431542 (Selleckchem, cat. S1067), and gastrin (Tocris, cat. 3006).
[…]
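Also: spheroids exposed to drugs for 7 days before viability reading.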

Compound: COc1cccc2c1C(=O)c1c(O)c3c(c(O)c1C2=O)CC(O)(C(=O)CO)CC3OC1CC(N)C(O)C(C)O1 (configuration not stated)
- viability, T/C (compound 0.0316 µM): 93% and 105% and 97.4%
- viability, T/C (compound 0.1 µM): 74.8% and 74.5% and 88.6%
- viability, T/C (compound 0.316 µM): 63.1% and 58% and 65.8%
- viability, T/C (compound 1 µM): 58.1% and 54.2% and 56.5%
- viability, T/C (compound 3.16 µM): 29.4% and 28.7% and 29.6%
- viability, T/C (compound 10 µM): 4.46% and 3.41% and 4.53%
- pIC50 (curve of compound): 5.97 and 6.14 and 5.95

Compound: COc1cccc2c1C(=O)c1c(O)c3c(c(O)c1C2=O)CC(O)(C(=O)CO)CC3OC1CC(N)C(O)C(C)O1 (configuration not stated) + CN(C)c1ccc(Nc2c3ccc(NC(=O)CCN4CCCC4)cc3nc3cc(NC(=O)CCN4CCCC4)ccc23)cc1
- pIC50 (curve of first compound, second compound 0.0316 µM): 6.16
- pIC50 (curve of first compound, second compound 0.1 µM): 6.04
- pIC50 (curve of first compound, second compound 0.316 µM): 6.14
- pIC50 (curve of first compound, second compound 1 µM): 6.10
- pIC50 (curve of first compound, second compound 3.16 µM): 6.00
- pIC50 (curve of first compound, second compound 10 µM): 6.39
- viability, T/C (second compound 0.0316 µM, first compound 0.0316 µM): 96.9%
- viability, T/C (second compound 0.0316 µM, first compound 0.1 µM): 75.1%
- viability, T/C (second compound 0.0316 µM, first compound 0.316 µM): 55.8%
- viability, T/C (second compound 0.0316 µM, first compound 1 µM): 54.9%
- viability, T/C (second compound 0.0316 µM, first compound 3.16 µM): 29.7%
- viability, T/C (second compound 0.0316 µM, first compound 10 µM): 3.98%
- viability, T/C (second compound 0.1 µM, first compound 0.0316 µM): 94.2%
- viability, T/C (second compound 0.1 µM, first compound 0.1 µM): 73.8%
- viability, T/C (second compound 0.1 µM, first compound 0.316 µM): 70.3%
- viability, T/C (second compound 0.1 µM, first compound 1 µM): 47.7%
- viability, T/C (second compound 0.1 µM, first compound 3.16 µM): 29.4%
- viability, T/C (second compound 0.1 µM, first compound 10 µM): 6.1%
- viability, T/C (second compound 0.316 µM, first compound 0.0316 µM): 108%
- viability, T/C (second compound 0.316 µM, first compound 0.1 µM): 80.6%
- viability, T/C (second compound 0.316 µM, first compound 0.316 µM): 53.1%
- viability, T/C (second compound 0.316 µM, first compound 1 µM): 51.5%
- viability, T/C (second compound 0.316 µM, first compound 3.16 µM): 29.6%
- viability, T/C (second compound 0.316 µM, first compound 10 µM): 5.16%
- viability, T/C (second compound 1 µM, first compound 0.0316 µM): 104%
- viability, T/C (second compound 1 µM, first compound 0.1 µM): 76.7%
- viability, T/C (second compound 1 µM, first compound 0.316 µM): 58.5%
- viability, T/C (second compound 1 µM, first compound 1 µM): 55.8%
- viability, T/C (second compound 1 µM, first compound 3.16 µM): 31%
- viability, T/C (second compound 1 µM, first compound 10 µM): 5.6%
- viability, T/C (second compound 3.16 µM, first compound 0.0316 µM): 89.5%
- viability, T/C (second compound 3.16 µM, first compound 0.1 µM): 84.5%
- viability, T/C (second compound 3.16 µM, first compound 0.316 µM): 55.6%
- viability, T/C (second compound 3.16 µM, first compound 1 µM): 56.6%
- viability, T/C (second compound 3.16 µM, first compound 3.16 µM): 30.3%
- viability, T/C (second compound 3.16 µM, first compound 10 µM): 6.32%
- viability, T/C (second compound 10 µM, first compound 0.0316 µM): 67.3%
- viability, T/C (second compound 10 µM, first compound 0.1 µM): 59.1%
- viability, T/C (second compound 10 µM, first compound 0.316 µM): 47.7%
- viability, T/C (second compound 10 µM, first compound 1 µM): 42.9%
- viability, T/C (second compound 10 µM, first compound 3.16 µM): 30.8%
- viability, T/C (second compound 10 µM, first compound 10 µM): 5.21%

Compound: COc1ccc([C@@H](O)c2cc(-c3ncnc4cc(N5CCOCC5)ccc34)c(F)cc2Cl)nn1
- viability, T/C (compound 0.0316 µM): 102% and 104% and 98.4%
- viability, T/C (compound 0.1 µM): 96.8% and 88% and 99.3%
- viability, T/C (compound 0.316 µM): 89.7% and 79.9% and 93.3%
- viability, T/C (compound 1 µM): 77.9% and 79.6% and 88.5%
- viability, T/C (compound 3.16 µM): 66.9% and 63.6% and 80%
- viability, T/C (compound 10 µM): 51% and 47.4% and 51.9%
- pIC50 (curve of compound): < 5.00 and 5.01

Second part, led by results:

- pIC50 (curve of compound): 7.11 and > 7.50
Compound: CC(=O)O[C@H]1C(=O)[C@@]2(C)[C@H]([C@H](OC(=O)c3ccccc3)[C@]3(O)C[C@H](OC(=O)[C@H](O)[C@@H](NC(=O)c4ccccc4)c4ccccc4)C(C)=C1C3(C)C)[C@]1(OC(C)=O)CO[C@@H]1C[C@@H]2O
- viability, T/C (compound 0.0316 µM): 76.3% and 38.3% and 43.2%
- viability, T/C (compound 0.1 µM): 42.8% and 28.9% and 29%
- viability, T/C (compound 0.316 µM): 10.7% and 26.6% and 31.2%

- pIC50 (curve of compound): < 5.00 and 5.81
Compound: C#Cc1c(F)ccc2cc(O)cc(-c3ncc4c(N5CC6CCC(C5)N6)nc(OCC56CCCN5CC(F)C6)nc4c3F)c12 (configuration not stated)
- viability, T/C (compound 0.0316 µM): 87.5% and 92.6% and 98.3%
- viability, T/C (compound 0.1 µM): 94.6% and 94.2% and 103%
- viability, T/C (compound 0.316 µM): 92.4% and 101% and 107%
- viability, T/C (compound 1 µM): 89.7% and 67.3% and 92.5%
- viability, T/C (compound 3.16 µM): 124% and 22.8% and 104%
- viability, T/C (compound 10 µM): 75% and 22.5% and 78.4%
